What all share (type): binding
Assay [1] addresses T1, AF9 YEATS domain (Homo sapiens, UniProt P42568).
T1 construct: His-AF9 (1-138); His (N); made in house; host or cells: E. coli Rosetta
T1 sequence (P42568 1-138): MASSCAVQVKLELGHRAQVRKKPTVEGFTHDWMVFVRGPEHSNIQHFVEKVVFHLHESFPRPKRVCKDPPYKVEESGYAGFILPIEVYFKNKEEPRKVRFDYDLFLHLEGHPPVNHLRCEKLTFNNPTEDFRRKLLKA
The assay is described as follows: Photo-cross-linking-based competition assay (photoaffinity probe, click chemistry, in-gel fluorescence). The settings on record: for IC50: competition with photoaffinity probe, in-gel fluorescence; for preliminary screening of competitors: inhibitory activity on AF9 YEATS domain: fluorescent signal intensity at 0.3 μM compared with peptide control. On the procedure:
Mobile phase used were water with 0.1% trifluoroacetic acid (buffer A) and 90% acetonitrile in water with 0.1% trifluoroacetic acid (buffer B). The purity (>95%) and identity of peptides were confirmed by LC-MS. The inhibitory activities of the inhibitors were determined by a photo-cross-linking-based competition assay. […] The reactions were incubated for 1 h at r.t . . . . The reactions were quenched by adding 5 volumes of ice-cold acetone and placed at −20° C. overnight to precipitate proteins. After protein precipitation, samples were centrifuged at 6000×g for 5 min at 4° C. The supernatant was discarded and the pellet was washed with ice-cooled methanol twice and air-dried for 10 min. […] Samples were then resolved by SDS-PAGE. The labeled proteins were visualized by scanning the gel on a Typhoon 9410 variable mode imager (excitation 532 nm, emission filter 580 nm). A photo-cross-linking based method was used in this study to estimate inhibitory activity (FIG. 28). This method requires the use of a photoaffinity probe. The probe (probe 1 (SEQ ID NO:48), see below) is derived from a crotonylated peptide, ligand of the protein, carrying a photo-cross-linker and a terminal alkyne as bioorthogonal. The YEATS domain is incubated and bound to the probe through Kcr-dependent recognition. Upon UV-irradiation, the photo-cross-linker is activated and rapidly cross-linked to the protein, converting the non-covalent protein-probe interaction into a covalent linkage. The probe-labeled protein is subsequently conjugated to an azide-functionalized fluorescence dye (for example, rhodamine-N3, Rho-N3) via Cu(I)-catalyzed azide-alkyne cycloaddition (CuAAC, or “click” chemistry). After SDS-PAGE, the protein can be visualized by in-gel fluorescence scanning. If photo-cross-linking of the YEATS domain with photoaffinity probe is performed in the presence of an inhibitor, which occupies the Kcr binding pocket of the YEATS domain and thus inhibits the protein-probe interaction, the percentage of the YEATS domain in the sample that is labeled by the probe will be reduced. The in-gel fluorescence intensity detected will also be decreased. By varying the concentration of inhibitor added in the sample and quantifying the resulting fluorescence intensities, a competition curve of the inhibitor toward the protein-probe interaction will be obtained, which can be used to estimate the IC50 value. Due to the covalent nature of photo-cross-linking, weak protein-protein interactions can be captured and eventually visualized. The protein concentration used in the assay can be as low as several nanograms per microliter, while the fluorescence signal can still be robustly detected and quantified.

The target of assay [2] is T1, AF9 YEATS domain. Put plainly: Isothermal titration calorimetry (ITC). The note with it: for Kd / N (sites) / ΔS / ΔH: ITC; for binding enhancement over the native crotonyl group: ITC Kd ratio; for ΔH: Table 3. On the procedure: ^1H and ^13C NMR spectra were recorded on Bruker UltraShield 400 or 600 MHz spectrometers and were calibrated using residual undeuterated solvent as an internal reference. Chemical shifts were reported in ppm, and coupling constant J was reported in Hz. Peptides were analyzed by LC-MS with an Agilent 1260 Infinity HPLC system connected to a Thermo Finnigan LCQ DecaXP MS detector. Peptides were purified on a preparative HPLC system with Waters 2535 Quaternary Gradient Module, Waters 515 HPLC pump, Waters SFO System Fluidics Organizer, and Waters 2767 Sample Manager. Photo-cross-linking was performed with an ENF-260C/FE hand-hang UV lamp (Spectroline). In-gel fluorescence scanning was performed using a Typhoon 9410 variable mode imager from GE Healthcare Life Sciences (excitation 532 nm, emission 580 nm). Images of Coomassie blue staining were acquired by MyECL Imager from Thermo Scientific. All images were processed by ImageJ software (National Institutes of Health), and contrast was adjusted appropriately. ITC experiments were performed with a MicroCal iTC200 titration calorimeter (MicroCal). IC50 and dissociation constants were fit with Origin 7.0 software package (OriginLab).
To further validate the reliability of the results obtained from the photo-cross-linking-based competition assay, we performed isothermal titration calorimetry (ITC) to determine the direct binding affinities of the inhibitors toward the AF9 YEATS domain. […] The ITC measurements were in agreement with the IC50 data, indicating the reliability of the results obtained from the photo-cross-linking-based competition assay.
Background: In ITC the heat of successive injections is recorded.

Assay [3] concerns the target T2, ENL YEATS domain (Homo sapiens, UniProt Q03111).
T2 construct: His-SUMO-ENL (1-138); His (N); SUMO (N); made in house; host or cells: E. coli Rosetta
T2 sequence (Q03111 1-138): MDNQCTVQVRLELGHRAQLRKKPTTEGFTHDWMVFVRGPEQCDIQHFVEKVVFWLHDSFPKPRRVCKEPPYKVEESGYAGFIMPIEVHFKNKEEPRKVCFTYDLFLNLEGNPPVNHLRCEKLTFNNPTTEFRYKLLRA
The assay is described as follows: Photo-cross-linking-based competition assay. The note with it: competition with photoaffinity probe, in-gel fluorescence.

The values that follow come from patent US11512111B2, “Yeats inhibitors and methods of use thereof” (The University of Hong Kong, priority 2017, dated 2022).

In general, IC50 refers to the concentration at which inhibition is half-maximal. A lower IC50 goes with higher potency. As usually defined, the Kd is the free concentration of one partner at which half of the binding sites on the other are occupied at equilibrium, for simple one-to-one binding.

Entries after “also recorded” stand apart in the source; their conditions may differ. Residues, ends and D or L forms follow the SMILES beside them. *: point of attachment. Oxazole(5-CO) = O=C(c1cnco1)*; Crotonyl(E) = C/C=C/C(=O)*; 2Furoyl = O=C(c1ccco1)*; Cbz = O=C(OCc1ccccc1)*; X1 = O=C(c1ccoc1)*

Regarding `C[C@H](NC(=O)[C@@H](NC(=O)[C@@H](N)CCC(N)=O)[C@@H](C)O)C(=O)N[C@@H](CCCNC(=N)N)C(=O)N[C@@H](CCCCNC(=O)c1ccco1)C(N)=O` [Compound 24], in assay [1], the IC50 came to 4500 nM. Turning to `C[C@H](NC(=O)[C@@H](NC(=O)[C@H](CCC(N)=O)NC(=O)[C@@H](N)CCCCN)[C@@H](C)O)C(=O)N[C@@H](CCCNC(=N)N)C(=O)N[C@@H](CCCCNC(=O)c1ccco1)C(=O)N[C@@H](CO)C(=O)N[C@H](C(=O)NCC(=O)NCC(N)=O)[C@@H](C)O` [Compound 7] (H-KQTARK(2Furoyl)STGG-NH2), in assay [1], the half-maximal inhibitory concentration (IC50) worked out at 1300 nM. Moreover, in assay [2], the dissociation constant (Kd) worked out at 3300 nM, the “N (sites)” value was determined as 0.91 ± 0.01 sites, the ΔS was −15.9 cal/mol/deg and the “binding enhancement over the native crotonyl group” value turned out to be 4.5 fold. For the same molecule, in assay [2], the ΔH is -12230 ± 110 cal/mol. Take `C[C@H](NC(=O)[C@H](C)NC(=O)[C@H](CCC(N)=O)NC(=O)OCc1ccccc1)C(=O)N[C@@H](CCCNC(=N)N)C(=O)N[C@@H](CCCCNC(=O)c1ccco1)C(N)=O` [Compound 53] (Cbz-QAARK(2Furoyl)-NH2; N-terminus and C-terminus assumed): the “preliminary screening of competitors: inhibitory activity on AF9 YEATS domain” value in assay [1] is reported as “comparable inhibitory activities”.

Consider `C[C@H](NC(=O)[C@@H](NC(=O)[C@H](CCC(N)=O)NC(=O)[C@@H](N)CCCCN)[C@@H](C)O)C(=O)N[C@@H](CCCNC(=N)N)C(=O)N[C@@H](CCCCNC(=O)c1cnco1)C(=O)N[C@@H](CO)C(=O)N[C@H](C(=O)NCC(=O)NCC(N)=O)[C@@H](C)O` [Compound 13] (H-KQTARK(Oxazole(5-CO))STGG-NH2), for which the IC50 in assay [1] is 740 nM. In assay [2], binding was characterised by a dissociation constant (Kd) of 1000 nM, the “N (sites)” value is 1.04 ± 0.02 sites, the ΔS was −13.8 cal/mol/deg and the “binding enhancement over the native crotonyl group” value is on record as 14.8 fold. Further, the ΔH in assay [2] was -12290 ± 376 cal/mol. Take “43 (Cbz-QTAKK-NH2; not fully specified (residue 5); also: K5: modified crotonyl group with attached furancarbonyl side chain) [Compound 43]”: in assay [1], the “preliminary screening of competitors: inhibitory activity on AF9 YEATS domain” value is given as “interact with the AF9 YEATS domain weakly”. Molecule `C/C=C/C(=O)NCCCC[C@H](NC(=O)[C@H](CCCNC(=N)N)NC(=O)[C@H](C)NC(=O)[C@@H](NC(=O)[C@H](CCC(N)=O)NC(=O)[C@@H](N)CCCCN)[C@@H](C)O)C(=O)N[C@@H](CO)C(=O)N[C@H](C(=O)NCC(=O)NCC(N)=O)[C@@H](C)O` [Compound 85, reference compound] (H-KQTARK(Crotonyl(E))STGG-NH2; N-terminus and C-terminus assumed) showed an IC50 in assay [1] of 6000 nM. Further, in assay [2], the “N (sites)” value amounted to 0.96 ± 0.02 sites, the ΔS was −17.8 cal/mol/deg and the ΔH is -11920 ± 423 cal/mol. `C[C@H](NC(=O)[C@@H](NC(=O)[C@H](CCC(N)=O)NC(=O)OCc1ccccc1)[C@@H](C)O)C(=O)N[C@@H](CCCNC(=N)N)C(=O)N[C@@H](CCCCNC(=O)c1ccco1)C(N)=O` [peptide control]: the half-maximal inhibitory concentration (IC50) in assay [1] was found to be 189 nM. As to `C[C@@H]1NC(=O)[C@H]([C@H](C)O)NC(=O)[C@@H](NC(=O)OCc2ccccc2)Cn2cc(nn2)CNC(=N)NCCC[C@H](C(=O)N[C@@H](CCCCNC(=O)c2cnco2)C(N)=O)NC1=O` [Compound 82], the 50% inhibitory concentration (IC50) in assay [1] came to 5100 nM; in assay [3], 9.23 µM.

Turning to `C[C@@H](O)[C@H](NC(=O)[C@H](CCC(N)=O)NC(=O)OCc1ccccc1)C(=O)N[C@@H](Cc1c[nH]c2ccccc12)C(=O)N[C@@H](CCCNC(=N)N)C(=O)N[C@@H](CCCCNC(=O)c1ccco1)C(N)=O` [Compound 49] (Cbz-QTWRK(2Furoyl)-NH2; N-terminus and C-terminus assumed), the “preliminary screening of competitors: inhibitory activity on AF9 YEATS domain” value in assay [1] (listed as A7-W) is recorded as “comparable results; also recorded: comparable inhibitory activities”.

`C[C@H](NC(=O)[C@@H](NC(=O)[C@H](CCC(N)=O)NC(=O)[C@@H](N)CCCCN)[C@@H](C)O)C(=O)N[C@@H](CCCNC(=N)N)C(=O)N[C@@H](CCCCNC(=O)c1ccoc1)C(=O)N[C@@H](CO)C(=O)N[C@H](C(=O)NCC(=O)NCC(N)=O)[C@@H](C)O` [Compound 8] (H-KQTARK(X1)STGG-NH2) displayed a half-inhibitory concentration (IC50) in assay [1] of 1700 nM.

With `C[C@H](NC(=O)[C@@H](NC(=O)[C@H](CCC(N)=O)NC(=O)[C@@H](N)CCCCN)[C@@H](C)O)C(=O)N[C@@H](CCCNC(=N)N)C(=O)N[C@@H](CCCCNC(=O)c1ccco1)C(N)=O` [Compound 25] (H-KQTARK(2Furoyl)-NH2; N-terminus and C-terminus assumed), the IC50 in assay [1] stood at 460 nM. For `C[C@H](NC(=O)[C@@H](NC(=O)[C@H](CCC(N)=O)NC(=O)Cc1ccc2ccccc2c1)[C@@H](C)O)C(=O)N[C@@H](CCCNC(=N)N)C(=O)N[C@@H](CCCCNC(=O)c1ccco1)C(N)=O` [Compound 74], the concentration for half-maximal inhibition (IC50) in assay [1] is 226 nM. Besides, the “preliminary screening of competitors: inhibitory activity on AF9 YEATS domain” value in assay [1] (listed as Cbz-4) was “comparable binding affinity; also recorded: comparable inhibitory activities”. In the case of “45 (Cbz-QTAQK-NH2; not fully specified (residue 5); also: K5: modified crotonyl group with attached furancarbonyl side chain) [Compound 45]”, the “preliminary screening of competitors: inhibitory activity on AF9 YEATS domain” value in assay [1] is listed as “interact with the AF9 YEATS domain weakly”.

As to “65 (Cbz-NTARK-NH2; not fully specified (residue 5); also: K5: modified crotonyl group with attached furancarbonyl side chain) [Compound 65]”, in assay [1], the “preliminary screening of competitors: inhibitory activity on AF9 YEATS domain” value is on record as “activity of inhibitor drops”. On the same count and under the same terms, the same measure for `C[C@H](NC(=O)[C@H](CO)NC(=O)[C@H](CCC(N)=O)NC(=O)OCc1ccccc1)C(=O)N[C@@H](CCCNC(=N)N)C(=O)N[C@@H](CCCCNC(=O)c1ccco1)C(N)=O` [Compound 55] (Cbz-QSARK(2Furoyl)-NH2; N-terminus and C-terminus assumed): “comparable inhibitory activities”. With `CC(C)C[C@H](NC(=O)[C@@H](NC(=O)[C@H](CCC(N)=O)NC(=O)OCc1ccccc1)[C@@H](C)O)C(=O)N[C@@H](CCCNC(=N)N)C(=O)N[C@@H](CCCCNC(=O)c1ccco1)C(N)=O` [Compound 47] (Cbz-QTLRK(2Furoyl)-NH2; N-terminus and C-terminus assumed), the “preliminary screening of competitors: inhibitory activity on AF9 YEATS domain” value in assay [1] (listed as A7-L) is on record as “comparable results; also recorded: comparable inhibitory activities”.
